According to the kinase profiling compilation of Christmann-Franck et al. (2016):

What follows are compounds tested against SGK1 (human) (UniProt O00141) (assay: Flashplate).
Chain of SGK1 (human) (O00141 whole entry, looked up): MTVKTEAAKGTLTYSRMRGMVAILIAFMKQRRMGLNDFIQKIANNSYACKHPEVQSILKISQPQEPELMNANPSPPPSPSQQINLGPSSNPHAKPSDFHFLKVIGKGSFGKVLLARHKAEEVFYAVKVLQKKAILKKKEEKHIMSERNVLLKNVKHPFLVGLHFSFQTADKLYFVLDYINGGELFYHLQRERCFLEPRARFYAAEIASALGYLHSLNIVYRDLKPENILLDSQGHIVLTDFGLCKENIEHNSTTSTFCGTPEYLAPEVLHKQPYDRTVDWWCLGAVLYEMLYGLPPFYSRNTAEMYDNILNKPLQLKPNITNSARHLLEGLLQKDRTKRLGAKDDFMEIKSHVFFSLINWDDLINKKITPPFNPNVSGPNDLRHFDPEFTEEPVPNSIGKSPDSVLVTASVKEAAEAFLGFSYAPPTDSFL

CNC1CCN(c2nc3[nH]cc(C(=O)O)c(=O)c3c(C)c2Br)C1 (configuration not stated) and Cc1c(Cl)c(N2CCC(CN)C2)nc2[nH]cc(C(=O)O)c(=O)c12 (configuration not stated) cannot be ordered by Ki: greater than 10 µM for the first, greater than 10 µM for the second.

CCCCNc1ccc2c3c(cccc13)C(=O)N(CCNCCO)C2=O and CCCC(=O)Nc1n[nH]c2nnc(-c3cccc(F)c3F)cc12 cannot be ordered by Ki: greater than 10 µM for the first, greater than 10 µM for the second.

First: Cc1cccc(NC(=O)Cc2ccc(-c3cccc4[nH]nc(N)c34)cc2)c1
Second: Cc1ccc(-c2ccc(NC(=O)Nc3cccc(Br)c3)cc2)c2c(N)n[nH]c12
The Ki of the first is 6.3-fold lower: 0.794 µM for the first, 5.01 µM for the second.

First: O=C(Nc1cnc2[nH]cc(-c3ccccc3)c2c1)c1ccc(Cl)cc1
Second: COc1cccc(C(=O)Nc2cnc3[nH]cc(-c4ccccc4)c3c2)c1
The Ki of the first is 2.5-fold higher: 5.01 µM for the first, 2 µM for the second.

CS(=O)(=O)N(Cc1ccc2[nH]c(=O)c3cccn3c2c1)C1CC1 and COc1cccc(-c2cc3c(=O)[nH]c4ccccc4n3c2)c1 cannot be ordered by Ki: greater than 10 µM for the first, greater than 10 µM for the second.

First: O=C1NC(=S)S/C1=C1\C(=O)Nc2ccc(Br)cc21
Second: O=C1Nc2ccccc2Nc2nnc(Cl)cc21
The Ki of the first is 2.5-fold lower: 2 µM for the first, 5.01 µM for the second. The first binds more tightly here.

Compared with Cc1nc(COc2ccccc2Cl)sc1-c1ccnc(N)n1, CCn1c(C)c(-c2ccnc(Nc3cccc(OC)c3)n2)sc1=O is 3.2-fold lower in Ki: 1 µM for the first, 0.316 µM for the second. The second binds more tightly here.

Compared with COc1cc(/C=C(\C#N)c2n[nH]c(N)c2C#N)ccc1O, COc1cc(/C=C2\SC(=O)NC2=O)ccc1O is lower in Ki: greater than 10 µM for the first, 3.98 µM for the second. The second binds more tightly here.

CN1CCC[C@H]1COc1cncc(CCc2ccccc2)c1 and Cc1c(-c2cccc(OCc3ccccc3)c2)c2c(N)ncnc2n1[C@H]1CC[C@@H](N2CCCC2)CC1 cannot be ordered by Ki: greater than 10 µM for the first, greater than 10 µM for the second.

Compared with CNC(=O)c1cc2c(-c3ccccc3F)n[nH]c2s1, COc1cc2c(cc1F)C(c1ccccc1Cl)=Nc1c(n[nH]c1C)N2 is 2.5-fold higher in Ki: 3.16 µM for the first, 7.94 µM for the second.

CNS(=O)(=O)c1ccccc1Nc1nc(Nc2cc(N3CCN(C(C)=O)CC3)ccc2OC)ncc1Br and CNC(=O)c1ccccc1Nc1nc(Nc2ccc(N3CCOCC3)cc2OC)ncc1Cl cannot be ordered by Ki: greater than 10 µM for the first, greater than 7.94 µM for the second.

Going from COc1cccc([C@@H](C)NC(=O)c2ccc(-c3ccncc3C)cc2)c1 to COc1cccc([C@H](C)NC(=O)c2ccc(-c3ccncc3)c(C)c2)c1, the Ki rises from 0.2 µM to 0.316 µM (1.6-fold). The first binds more tightly here.

Going from OCC[C@@H](Nc1nc2ccc(-c3ccncc3)cc2s1)c1ccccc1 to O=C(N[C@H](CO)Cc1ccccc1)c1ccc(-c2ccncc2)cc1, the Ki rises from 1 µM to 6.31 µM (6.3-fold).

Cc1cc(C)c(C)c(OCCCc2c(C(=O)O)[nH]c3c(-c4ccccc4C)cccc23)c1 and Cc1nn(C)c(C)c1-c1cccc2c(CCCOc3cccc4ccccc34)c(C(=O)O)[nH]c12 cannot be ordered by Ki: greater than 10 µM for the first, greater than 10 µM for the second.

Cc1cc(N2CCOCC2)cc2[nH]c(-c3c(NC[C@@H](O)c4cccc(Cl)c4)cc[nH]c3=O)nc12 and Cc1cccc(/C=N/Nc2cc(N3CCOCC3)nc(OCCc3ccccn3)n2)c1 cannot be ordered by Ki: greater than 10 µM for the first, greater than 10 µM for the second.

Going from O=C(Nc1cccc(C(F)(F)F)n1)Nc1ccnc2c(F)cccc12 to Nc1ncc(-c2ccncc2)c2scc(-c3ccc(NC(=O)Nc4cc(C(F)(F)F)ccc4F)cc3)c12, the Ki falls from greater than 10 µM to 0.631 µM. The second binds more tightly here.

Going from N#C/C(=C\c1ccc(O)c(O)c1)C(=O)NCc1ccccc1 to COc1cc(/C=C2\S/C(=N\c3ccccc3)NC2=O)ccc1O, the Ki falls from greater than 10 µM to 5.01 µM.

Fc1ccc(-c2ncn(CCN3CCOCC3)c2-c2ccc3[nH]ncc3c2)cc1 and Nc1nc2ccc(-c3c(-c4ccc(F)cc4)nc4sccn34)cc2n1CC1CC1 cannot be ordered by Ki: greater than 10 µM for the first, greater than 10 µM for the second.

Going from O=c1[nH]cc(I)c2nc(-c3cccc(Cl)c3)cn12 to O=c1[nH]c2cc(-c3ccccc3)cnc2[nH]1, the Ki rises from 7.94 µM to greater than 10 µM. The first binds more tightly here.

First: NC1CCCCC1Nc1nccc(-c2c[nH]c3ncccc23)n1 (configuration not stated)
Second: c1ccc(-c2c[nH]c3ncnc(N4CCCCC4)c23)cc1
The Ki of the first is lower: 1.58 µM for the first, greater than 6.31 µM for the second.

COc1cc(C(=O)O)c(Cl)cc1NC(=O)Nc1cnc(C#N)cn1 and CCOc1nc(NC(=O)Cc2cc(OC)c(S(C)(=O)=O)cc2OC)cc(N)c1C#N cannot be ordered by Ki: greater than 10 µM for the first, greater than 10 µM for the second.

First: CN(C)CC(=O)N[C@H](COc1cncc(-c2ccc3cnccc3c2)c1)Cc1c[nH]c2ccccc12
Second: N[C@@H](Cc1c[nH]c2ccccc12)C(=O)Nc1cncc(/C=C/c2ccncc2)c1
The Ki of the first is 2.5-fold higher: 7.94 µM for the first, 3.16 µM for the second.

CNC(=O)COc1ccc(Nc2nc(Nc3ccc(C)c(S(N)(=O)=O)c3)ncc2F)cc1 and CCOc1ccc(NC(=O)Nc2ccc(-c3csc4c(-c5cnn(C)c5)cnc(N)c34)cc2)cc1 cannot be ordered by Ki: greater than 10 µM for the first, greater than 10 µM for the second.

Cc1nccn2c(-c3ccnc(NCC(C)(C)C(=O)O)n3)c(-c3ccc(F)cc3F)nc12 and CN(C)CC(C)(C)CNc1nccc(-c2c(-c3ccc(F)cc3)nc3occn23)n1 cannot be ordered by Ki: greater than 10 µM for the first, greater than 10 µM for the second.

Cc1ccc(C(=O)Nc2c(C(N)=O)sc3ccc(Cl)c(Cl)c23)cc1 and O=C(NC(CO)c1cc(Cl)cc(Cl)c1)c1ccc(-c2ccncc2)cc1 (configuration not stated) are within 1.5-fold of each other in Ki: 3.16 µM for the first, 3.98 µM for the second.

CCCCn1c(NC(=O)c2ccc(C#N)cc2)nc2cc(N(C)C(=O)C3CCCCC3)ccc21 and Cc1c(C)n(Cc2ccccc2)c2ccc(C(=O)Nc3nc[nH]n3)cc12 cannot be ordered by Ki: greater than 10 µM for the first, greater than 10 µM for the second.

Compared with Cc1cccc(NC(=O)Nc2ccc(-c3csc4ncnc(N)c34)cc2)c1, CCC(N)(C#Cc1cnc(N)c2c(-c3ccc(NC(=O)Nc4cccc(C)c4)cc3)csc12)CC is lower in Ki: greater than 10 µM for the first, 3.98 µM for the second.

First: O=C(O)c1ccccc1Nc1ccnc(Nc2ccc3[nH]ncc3c2)n1
Second: O=C(Nc1ccc2[nH]ncc2c1)c1cccc(F)c1
The Ki of the first is lower: 0.501 µM for the first, greater than 10 µM for the second. The first binds more tightly here.

Cc1ccc(NC(=O)Nc2ccc(-c3csc4c(-c5cnn(C(C)C(=O)N(C)C)c5)cnc(N)c34)cc2)cc1 (configuration not stated) and CNC(=O)C(C)n1cc(-c2cnc(N)c3c(-c4ccc(NC(=O)Nc5ccc(C)cc5)cc4)csc23)cn1 (configuration not stated) cannot be ordered by Ki: greater than 10 µM for the first, greater than 10 µM for the second.

First: C[C@@H](O)Cn1cc(-c2cnc(N)c3c(-c4ccc(NC(=O)Nc5cccc(F)c5)cc4)csc23)cn1
Second: Cc1cccc(NC(=O)Nc2ccc(-c3csc4c(-c5cnn(C[C@H](C)O)c5)cnc(N)c34)cc2)c1
The Ki of the first is lower: 2.51 µM for the first, greater than 10 µM for the second.

CCc1nc(-c2cccc(C)c2)c(-c2ccnc(NC(=O)c3ccccc3)c2)s1 and O=C(Cc1ccccc1)Nc1cccc(-c2nc3sccn3c2-c2ccnc(Nc3cccc(N4CCCC4=O)c3)n2)c1 cannot be ordered by Ki: greater than 10 µM for the first, greater than 10 µM for the second.

Compared with CCOC(=O)C1=C(N)n2c(s/c(=C\c3cccs3)c2=O)=C(C(N)=O)C1c1cccs1 (configuration not stated), Cc1[nH]c(/C=C2\C(=O)Nc3ccccc32)c(C)c1CCC(=O)O is lower in Ki: greater than 10 µM for the first, 5.01 µM for the second.

O=C(N[C@H](CO)c1ccccc1)N1CC=C(c2c[nH]c3ncccc23)CC1 and COc1cccc([C@@H](C)NC(=O)c2cnc(-c3ccncc3)s2)c1 are within 1.5-fold of each other in Ki: 0.398 µM for the first, 0.501 µM for the second.

NC(=O)c1cc(-c2cccc(N)c2)cc2cccnc12 and OCCNc1cc2cc(-c3ccncc3)ccc2cn1 cannot be ordered by Ki: greater than 10 µM for the first, greater than 10 µM for the second.

N[C@@H]1[C@H]2CN(c3nc4c(cc3F)c(=O)c(C(=O)O)cn4-c3ccc(F)cc3F)C[C@@H]12 and Cn1c(=O)c(Oc2ccc(F)cc2F)cc2cnc(NC3CCOCC3)nc21 cannot be ordered by Ki: greater than 10 µM for the first, greater than 10 µM for the second.

Compared with Nc1n[nH]c2ccc(-c3nnn(Cc4ccccc4)c3I)cc12, CC(C)N(C)C(=O)c1c(-c2ccc3[nH]ncc3c2)nnn1Cc1ccccc1 is 10-fold higher in Ki: 0.0631 µM for the first, 0.631 µM for the second. The first binds more tightly here.

Going from Cc1cc(C)cc(NC(=O)Nc2ccc(-c3cccc4sncc34)cc2)c1 to Cc1cccc(NC(=O)Nc2ccc(-c3cnc4c(-c5cnn(C)c5)cnn4c3N)cc2)c1, the Ki falls from greater than 10 µM to 6.31 µM. The second binds more tightly here.

O=C1NC(=O)C(c2cnc3ccccn23)=C1c1cn2c3c(cccc13)CN(C(=O)N1CCOCC1)CC2 and O=C(c1cc(Cc2n[nH]c(=O)c3c2CCCC3)ccc1F)N1CCN(c2ncccn2)CC1 cannot be ordered by Ki: greater than 10 µM for the first, greater than 10 µM for the second.

COc1nccc(-c2c(-c3ccc(F)cc3)ncn2C2CCNCC2)n1 and COCCn1cc(-c2ccncn2)c(-c2ccc(Cl)cc2)n1 cannot be ordered by Ki: greater than 10 µM for the first, greater than 10 µM for the second.

Cn1cc(-c2cnn3c(N)c(-c4ccc(NC(=O)Nc5cccc(C(F)(F)F)c5)cc4)cnc23)cn1 and Cc1ccc(NC(=O)Nc2ccc(-c3csc4c(-c5cnn(C)c5)cnc(N)c34)cc2)cc1 cannot be ordered by Ki: greater than 10 µM for the first, greater than 10 µM for the second.

Compared with O=S(=O)(c1cccc2cnccc12)N1CCCNCC1, O=C(c1cc(-c2ccc3[nH]ncc3c2)on1)N1CCCCC1 is higher in Ki: 6.31 µM for the first, greater than 10 µM for the second. The first binds more tightly here.

Going from Nc1ncnn2ccc(C(=O)Nc3ccc(NC(=O)Nc4cccc(F)c4)cc3)c12 to COC(=O)c1c(-c2ccc(NC(=O)Nc3ccccc3)cc2)c2c(N)ncnn2c1C, the Ki falls from greater than 10 µM to 0.631 µM.

Compared with Clc1ccc(CNc2ccc3nnc(-c4ccccc4)n3n2)cc1, Nc1n[nH]c2nnc(-c3ccccc3)c(-c3ccccc3)c12 is lower in Ki: greater than 10 µM for the first, 2.51 µM for the second. The second binds more tightly here.

COc1cccc(Nc2ncnc3ccccc23)c1 and COc1cc(Nc2ncnc3ccc(-c4ccc(CN5C[C@@H]6C(CO)[C@@H]6C5)cc4)cc23)ccc1Oc1ccccc1 (some centres not stated) cannot be ordered by Ki: greater than 10 µM for the first, greater than 10 µM for the second.

First: COc1ccc(NC(=O)Nc2ccc(-c3csc4c(-c5cnn(CC(C)(C)O)c5)cnc(N)c34)cc2)cc1
Second: Cc1cccc(NC(=O)Nc2ccc(-c3csc4c(C#CCN5CCCC5)cnc(N)c34)cc2)c1
The Ki of the first is higher: greater than 10 µM for the first, 5.01 µM for the second.

First: O=C(N/N=C/c1ccc(Sc2nc3ccccc3[nH]2)o1)c1cccc([N+](=O)[O-])c1
Second: Cc1ccccc1NC(=O)Nc1ccc(-c2coc3ncnc(N)c23)cc1
The Ki of the first is higher: greater than 10 µM for the first, 2.51 µM for the second. The second binds more tightly here.

Compared with Cc1cccc(Nc2nccc(Nc3c(N[C@H](C)C(C)(C)C)c(=O)c3=O)n2)c1, Cc1nc2ccccn2c1-c1csc(Nc2ccc(O)cc2)n1 is higher in Ki: 1 µM for the first, greater than 10 µM for the second. The first binds more tightly here.

First: NCCCn1cc(-c2cc(-c3cc4ccccc4s3)c3[nH]ncc3c2)c2nc(N)ncc21
Second: COc1cc2ncn(-c3cc(OCc4ccccc4C(F)(F)F)c(C(=O)O)s3)c2cc1OC
The Ki of the first is lower: 0.501 µM for the first, greater than 10 µM for the second.

Going from Cc1cc(C)c2c(n1)sc1c(N)ncnc12 to CCOc1nc(C(=O)NCc2cccnc2)cc(N)c1C#N, the Ki rises from 3.16 µM to greater than 10 µM. The first binds more tightly here.

CC(C)(O)c1nnc2ccc(-c3c(-c4ccc(F)cc4F)nc4n3CCC4)nn12 and NC(=O)c1cc(Cl)cc2[nH]c(-c3ccc(C4CCCNC4)cc3F)nc12 (configuration not stated) cannot be ordered by Ki: greater than 10 µM for the first, greater than 10 µM for the second.

First: Cc1cc(Cl)ccc1NC(=S)NNC(=O)C(O)(c1ccccc1)c1ccccc1
Second: O=C(NS(=O)(=O)c1ccc(NCCSc2ccc(O)cc2)c([N+](=O)[O-])c1)c1ccc(-c2ccc(F)cc2)cc1
The Ki of the first is lower: 6.31 µM for the first, greater than 10 µM for the second.

CNCc1ccc(-c2[nH]c3cc(F)cc4c3c2CCNC4=O)cc1 and COc1ccc(/C=C2/C(=O)ON=C2c2ccc(Br)cc2)cc1OC cannot be ordered by Ki: greater than 10 µM for the first, greater than 10 µM for the second.

O=C(NCCCCCCNC(=O)NCc1cccnc1)NCc1cccnc1 and N#Cc1ncc2nc1OCC(O)C(O)COc1ccc(Cl)cc1NC(=O)N2 (configuration not stated) cannot be ordered by Ki: greater than 10 µM for the first, greater than 10 µM for the second.

For O=C(c1cc(-c2ccc3[nH]ncc3c2)on1)N1CCC[C@@H](O)C1, the Ki was greater than 10 µM.
